This passage reports AC50 and IC50 results from ChEMBL document CHEMBL1201862, “PubChem BioAssay data set” (2004).

Calls of active or inactive are those of the source. For most assays here, no stated cut-off is given here; in the data, actives have a measured IC50 and inactives only a lower limit.

In test [1] the target is Lysine-specific demethylase 4C (Homo sapiens, UniProt Q9H3R0). Description: inhibition of JMJD2C H3K9me3 demethylation – biochemical, DELFIA europium, cherry-picked samples, dose response (AID 488835). It is filed as functional.
Lysine-specific demethylase 4C, sequence (Q9H3R0 whole entry, the tested form may be a part): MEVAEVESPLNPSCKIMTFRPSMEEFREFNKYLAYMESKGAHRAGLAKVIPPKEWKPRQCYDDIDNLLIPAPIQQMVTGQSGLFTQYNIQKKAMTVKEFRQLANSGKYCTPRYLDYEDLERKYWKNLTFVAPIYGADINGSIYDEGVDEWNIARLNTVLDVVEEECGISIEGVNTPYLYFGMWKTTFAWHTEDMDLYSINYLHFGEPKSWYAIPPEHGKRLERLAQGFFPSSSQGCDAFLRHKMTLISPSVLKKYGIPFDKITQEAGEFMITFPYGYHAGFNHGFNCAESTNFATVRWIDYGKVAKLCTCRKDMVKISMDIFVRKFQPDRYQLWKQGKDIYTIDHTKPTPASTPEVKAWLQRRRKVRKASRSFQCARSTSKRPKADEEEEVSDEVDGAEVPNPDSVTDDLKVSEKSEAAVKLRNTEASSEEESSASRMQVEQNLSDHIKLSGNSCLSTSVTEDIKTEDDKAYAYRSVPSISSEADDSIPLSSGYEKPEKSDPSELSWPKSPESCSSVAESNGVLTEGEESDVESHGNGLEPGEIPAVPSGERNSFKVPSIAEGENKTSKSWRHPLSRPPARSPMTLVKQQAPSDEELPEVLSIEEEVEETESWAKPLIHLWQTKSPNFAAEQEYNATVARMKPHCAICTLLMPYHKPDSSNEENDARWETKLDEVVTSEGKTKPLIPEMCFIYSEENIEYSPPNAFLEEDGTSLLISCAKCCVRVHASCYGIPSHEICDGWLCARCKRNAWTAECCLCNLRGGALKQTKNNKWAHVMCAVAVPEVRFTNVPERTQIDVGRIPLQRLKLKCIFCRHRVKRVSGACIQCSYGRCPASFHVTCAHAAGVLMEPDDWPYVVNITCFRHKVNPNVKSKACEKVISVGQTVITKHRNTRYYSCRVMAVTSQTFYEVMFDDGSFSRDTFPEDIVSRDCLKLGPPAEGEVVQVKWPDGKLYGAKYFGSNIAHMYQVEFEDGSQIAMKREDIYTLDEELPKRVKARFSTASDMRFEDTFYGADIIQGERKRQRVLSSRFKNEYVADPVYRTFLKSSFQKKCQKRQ
Test [2] deals with T1, Carboxy-terminal domain RNA polymerase II polypeptide A small phosphatase 1 (Homo sapiens, UniProt Q9GZU7).
T1 sequence (Q9GZU7 whole entry): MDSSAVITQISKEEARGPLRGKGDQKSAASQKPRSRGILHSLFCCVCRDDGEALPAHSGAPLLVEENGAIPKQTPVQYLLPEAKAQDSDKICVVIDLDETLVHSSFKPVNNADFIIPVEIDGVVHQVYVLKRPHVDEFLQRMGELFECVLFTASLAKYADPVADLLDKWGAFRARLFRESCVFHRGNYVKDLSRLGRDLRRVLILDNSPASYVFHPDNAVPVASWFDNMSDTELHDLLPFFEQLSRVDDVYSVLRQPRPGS
Description: CTDSP1 inhibitors, concentration-response, biochemical, absorbance readout, ultra-high-throughput screen actives (AID 540297). Type of test: functional.

Test [3] concerns the target SUMO E1/E2 (Homo sapiens, UniProt P63279+Q9UBE0+Q9UBT2). Description: SAR analysis of SUMOylation using HTRF in an in-Vitro dose response assay. [Related pubchem assays (depositor defined):AID2006, AID2011, AID2018, AID2069, AID2658]. It is filed as functional.
The target of test [4] is T2, SUMO-activating enzyme (Homo sapiens, UniProt Q9UBT2). Description: blockers of UBC9-mediated SUMO conjugation – biochemical, AlphaScreen, SUMOylation inhibitor project, confirmation (AID 2018). Type of test: functional.
T2 sequence (Q9UBE0 whole entry): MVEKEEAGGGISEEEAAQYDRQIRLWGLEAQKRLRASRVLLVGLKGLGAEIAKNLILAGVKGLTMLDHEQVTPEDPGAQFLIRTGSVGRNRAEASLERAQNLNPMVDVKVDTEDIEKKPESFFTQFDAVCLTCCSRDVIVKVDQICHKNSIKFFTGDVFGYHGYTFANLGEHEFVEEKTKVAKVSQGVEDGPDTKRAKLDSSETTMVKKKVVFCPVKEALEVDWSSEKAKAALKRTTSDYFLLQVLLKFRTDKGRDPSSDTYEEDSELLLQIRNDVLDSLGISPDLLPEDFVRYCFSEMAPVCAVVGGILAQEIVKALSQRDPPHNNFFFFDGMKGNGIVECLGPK
T2 sequence (Q9UBT2 whole entry): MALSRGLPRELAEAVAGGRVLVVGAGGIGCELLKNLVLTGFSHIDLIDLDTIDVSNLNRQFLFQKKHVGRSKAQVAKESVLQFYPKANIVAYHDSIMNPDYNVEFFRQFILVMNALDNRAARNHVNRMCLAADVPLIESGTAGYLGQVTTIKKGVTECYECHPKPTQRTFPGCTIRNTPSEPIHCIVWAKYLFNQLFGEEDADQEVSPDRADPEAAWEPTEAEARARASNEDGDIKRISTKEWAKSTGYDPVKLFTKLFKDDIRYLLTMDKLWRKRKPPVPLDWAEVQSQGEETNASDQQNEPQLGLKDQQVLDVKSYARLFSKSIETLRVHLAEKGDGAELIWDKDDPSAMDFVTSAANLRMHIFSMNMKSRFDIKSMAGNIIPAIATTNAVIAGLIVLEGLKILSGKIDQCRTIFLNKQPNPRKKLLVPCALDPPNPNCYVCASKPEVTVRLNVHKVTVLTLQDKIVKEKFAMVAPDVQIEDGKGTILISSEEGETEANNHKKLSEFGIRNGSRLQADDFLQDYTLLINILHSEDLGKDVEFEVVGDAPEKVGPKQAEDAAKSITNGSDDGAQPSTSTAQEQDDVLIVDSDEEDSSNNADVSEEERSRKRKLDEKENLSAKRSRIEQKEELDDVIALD
The target in test [5] is T2, SUMO-activating enzyme. Description: blockers of SAE1/SAE2–UBC9 SUMO transfer – biochemical, HTRF, uHTS, primary screen (AID 2006). Type of test: protein-complex assay.
The nature of test [6]: HEK-293T viability loss, compound-treated – cell-based, uHTS hits, cytotoxicity control for B/T-cell NF-kB inhibitor project, dose response (AID 489019).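 Further: IC50 reflects cytotoxicity as loss of cell viability.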 It is filed as functional.
For test [7], the system named is Jurkat. As to the kind of experiment: blockers of NF-kB activation in T cells – Jurkat, luciferase reporter, luminescence, B- and T-cell, dose response (AID 489004).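 Further: NF-kB luciferase reporter Jurkat cells stimulated with PMA plus ionomycin.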 It is filed as functional, cell-based. Conditions: Homo sapiens.

SUMO E1/E2, sequence (Q9UBE0 whole entry): as the sequence (Q9UBE0 whole entry) above
SUMO E1/E2, sequence (Q9UBT2 whole entry): as the sequence (Q9UBT2 whole entry) above
SUMO E1/E2, sequence (P63279 whole entry): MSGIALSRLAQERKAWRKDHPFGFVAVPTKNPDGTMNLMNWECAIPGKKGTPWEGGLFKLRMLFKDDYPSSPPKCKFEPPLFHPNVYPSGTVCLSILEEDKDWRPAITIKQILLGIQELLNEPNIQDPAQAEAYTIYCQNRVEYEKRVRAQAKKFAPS

Consider `O=C1NC(=O)C(C(CC(=O)c2ccccc2)c2ccccc2)C(=O)N1` (configuration not stated), for which, in test [1], the AC50 was 7.62 µM (active).
As to `O=C(N=Nc1c(O)[nH]c2ccc([N+](=O)[O-])cc12)c1ccccc1Cl`, the IC50 is 6.44 µM (active) in test [2], 94.4 µM (active) in test [3], 7.02 µM (active) in test [4] and 20.4 µM (active) in test [5].
Regarding `CC(C)Cc1cc(C(C)(C)C)ccc1OC(=S)N(C)C`, the IC50 in test [6] and in test [7] was > 80 µM (inactive) each time.
